Patent US10479780B2, “Aminopyrazole derivatives” (Chugai Seiyaku Kabushiki Kaisha, priority 2015, dated 2019)
Like-named read-outs stand apart in the source and are kept apart here.

Legend:
Type in all cases: biochemical
human Src enzyme = target: T1, human Src enzyme (Homo sapiens, UniProt P12931); test: Src enzyme inhibitory activity (time-resolved fluorometry, biotinylated peptide phosphorylation); conditions: read-out: SRC_IC50
T1 construct: purchased Carna Biosciences, Inc. 08-173
Summary of the method: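 Compounds were tested for blocking tyrosine phosphorylation of a biotinylated peptide substrate by recombinant human Src. Phosphorylated product was quantified by time-resolved fluorometry using europium cryptate and XL665 conjugates, and IC50 was calculated against the compound-free control.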

human Yes1 enzyme = target: T2, human Yes1 enzyme (Homo sapiens, UniProt P07947); test: Yes1 enzyme inhibitory activity (time-resolved fluorometry, biotinylated peptide phosphorylation); conditions: read-out: YES_IC50
T2 construct: made in house
T2 sequence (P07947 whole entry): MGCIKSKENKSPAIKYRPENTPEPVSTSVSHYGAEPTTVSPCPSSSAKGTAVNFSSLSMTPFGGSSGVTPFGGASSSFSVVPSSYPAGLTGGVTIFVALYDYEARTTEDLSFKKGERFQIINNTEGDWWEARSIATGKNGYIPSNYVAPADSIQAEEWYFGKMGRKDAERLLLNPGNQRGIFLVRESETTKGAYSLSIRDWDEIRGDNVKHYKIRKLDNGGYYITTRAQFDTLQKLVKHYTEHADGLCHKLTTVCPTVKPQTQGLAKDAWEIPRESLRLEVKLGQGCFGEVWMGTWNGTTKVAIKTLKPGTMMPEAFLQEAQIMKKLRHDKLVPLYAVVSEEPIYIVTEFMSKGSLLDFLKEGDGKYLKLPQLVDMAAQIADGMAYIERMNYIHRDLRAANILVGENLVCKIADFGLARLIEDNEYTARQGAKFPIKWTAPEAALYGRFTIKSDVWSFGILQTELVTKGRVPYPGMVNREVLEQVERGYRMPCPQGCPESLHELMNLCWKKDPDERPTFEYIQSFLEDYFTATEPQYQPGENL
Summary of the method: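 Inhibition was expressed against a compound-free control to give IC50, using TR-FRET read-out (Eu-cryptate anti-pTyr antibody, streptavidin-XL665).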

human Lck enzyme = target: T3, human Lck enzyme (Homo sapiens, UniProt P06239); test: Lck enzyme inhibitory activity (time-resolved fluorometry, biotinylated peptide phosphorylation); conditions: read-out: LCK_IC50
T3 construct: purchased Carna Biosciences, Inc. 08-170
T3 sequence (P06239 whole entry): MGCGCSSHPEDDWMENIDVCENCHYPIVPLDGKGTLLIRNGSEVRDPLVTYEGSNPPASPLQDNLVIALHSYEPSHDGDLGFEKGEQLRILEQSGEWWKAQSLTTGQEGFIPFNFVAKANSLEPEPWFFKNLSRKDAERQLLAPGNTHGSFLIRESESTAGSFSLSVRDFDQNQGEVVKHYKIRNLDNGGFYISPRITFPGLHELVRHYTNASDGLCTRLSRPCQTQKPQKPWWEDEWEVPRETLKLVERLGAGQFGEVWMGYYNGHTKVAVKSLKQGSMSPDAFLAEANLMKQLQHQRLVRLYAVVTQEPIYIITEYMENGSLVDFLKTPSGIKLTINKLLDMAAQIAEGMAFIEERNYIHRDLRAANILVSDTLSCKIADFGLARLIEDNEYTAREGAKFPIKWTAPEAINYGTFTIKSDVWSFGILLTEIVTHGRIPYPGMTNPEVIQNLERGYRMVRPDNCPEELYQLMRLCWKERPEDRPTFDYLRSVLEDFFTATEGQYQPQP
Summary of the method: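 Readout pairs a europium cryptate-labelled anti-phosphotyrosine antibody with XL665-streptavidin, measured by time-resolved fluorescence. IC50 derived from percent inhibition against untreated controls.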

[1] = biotinylated peptide phosphorylation

T1 sequence (P12931 whole entry): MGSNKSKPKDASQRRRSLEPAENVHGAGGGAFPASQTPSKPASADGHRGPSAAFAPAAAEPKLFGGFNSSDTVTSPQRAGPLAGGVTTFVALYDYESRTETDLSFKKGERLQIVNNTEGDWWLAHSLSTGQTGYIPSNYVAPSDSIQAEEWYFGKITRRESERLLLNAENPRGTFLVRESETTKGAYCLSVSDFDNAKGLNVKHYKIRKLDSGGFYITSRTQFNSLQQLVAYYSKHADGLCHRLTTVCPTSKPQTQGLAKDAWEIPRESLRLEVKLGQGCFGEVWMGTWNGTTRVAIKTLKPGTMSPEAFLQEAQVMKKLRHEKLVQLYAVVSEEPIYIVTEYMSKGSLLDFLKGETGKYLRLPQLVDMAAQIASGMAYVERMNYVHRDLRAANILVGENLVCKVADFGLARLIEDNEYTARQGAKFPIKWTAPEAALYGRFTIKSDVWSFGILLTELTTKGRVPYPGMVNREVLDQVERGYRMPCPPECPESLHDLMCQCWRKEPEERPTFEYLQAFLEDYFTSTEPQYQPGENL

IC50 (human Src enzyme) | IC50 (human Yes1 enzyme) | IC50 (human Lck enzyme) | IC50 (human Src enzyme; [1]) | IC50 (human Yes1 enzyme; [1]) | IC50 (human Lck enzyme; [1]) | Compound
16 nM | 1.6 nM | 8.2 nM |  |  |  | COc1cc2cc(C(=O)c3cnn(-c4cnc(Oc5ccccc5F)cc4C)c3N)[nH]c2cc1Br [Example 5-1-145, [5-amino-1-[6-(2-fluorophenoxy)-4-methylpyridin-3-yl]pyrazol-4-yl]-(6-bromo-5-methoxy-1H-indol-2-yl)methanone]
 |  |  | 250 nM | 5.2 nM | 48 nM | Cc1cc2cc(C(=O)c3cnn(-c4cnc(Oc5ccccc5F)cc4C)c3N)[nH]c2cc1NS(=O)(=O)c1ccccn1 [Example 5-1-477, N-[2-[5-amino-1-[6-(2-fluorophenoxy)-4-methylpyridin-3-yl]pyrazole-4-carbonyl]-5-methyl-1H-indol-6-yl]pyridine-2-sulfonamide]
21 nM | 2.3 nM | 2 nM |  |  |  | Cc1cc2cc(C(=O)c3cnn(-c4c(C)cc(Oc5ccccc5F)cc4F)c3N)[nH]c2cc1N1CCC(N2CCOCC2)CC1 [Example 5-1-085, [5-amino-1-[2-fluoro-4-(2-fluorophenoxy)-6-methylphenyl]pyrazol-4-yl]-[5-methyl-6-(4-morpholin-4-ylpiperidin-1-yl)-1H-indol-2-yl] methanone]
 |  |  | 100 nM | 3.1 nM | 4.9 nM | Cc1cc2cc(C(=O)c3cnn(-c4cnc(Oc5c(F)cccc5F)cc4C)c3N)[nH]c2cc1NS(=O)(=O)C1CC1 [Example 4-1-017, N-[2-[5-amino-1-[6-(2,6-difluorophenoxy)-4-methylpyridin-3-yl]pyrazole-4-carbonyl]-5-methyl-1H-indol-6-yl]cyclopropanesulfonamide]
 |  |  | 740 nM | 7.7 nM | 80 nM | Cc1cc(Oc2ccccc2F)ncc1-n1ncc(C(=O)c2cc3cc(F)c(NS(=O)(=O)c4cncc(F)c4)cc3[nH]2)c1N [Example 5-1-549, N-[2-[5-amino-1-[6-(2-fluorophenoxy)-4-methylpyridin-3-yl]pyrazole-4-carbonyl]-5-fluoro-1H-indol-6-yl]-5-fluoropyridine-3-sulfonamide]
 |  |  | 110 nM | 0.92 nM | 17 nM | Cc1cc(Oc2ccccc2Cl)ncc1-n1ncc(C(=O)c2cc3cc(F)c(NS(=O)(=O)C4CC4)cc3[nH]2)c1N [Example 4-7-015, N-[2-[5-amino-1-[6-(2-chlorophenoxy)-4-methylpyridin-3-yl]pyrazole-4-carbonyl]-5-fluoro-1H-indol-6-yl]cyclopropanesulfonamide]
 |  |  | 21 nM | 6.3 nM | 8.2 nM | Cc1cc(Oc2c(F)cccc2F)ncc1-n1ncc(C(=O)c2cc3cc(OC(F)F)c(C4CCNCC4)cc3[nH]2)c1N [Example 4-4-001, (5-amino-1-(6-(2,6-difluorophenoxy)-4-methylpyridin-3-yl)-1H-pyrazol-4-yl)(5-(difluoromethoxy)-6-(piperidin-4-yl)-1H-indol-2-yl)methanone]
 |  |  | 1300 nM | 11 nM | 630 nM | COc1cc(F)cc(S(=O)(=O)Nc2cc3[nH]c(C(=O)c4cnn(-c5cnc(Oc6ccccc6F)cc5C)c4N)cc3cc2C)c1 [Example 5-1-496, N-[2-[5-amino-1-[6-(2-fluorophenoxy)-4-methylpyridin-3-yl]pyrazole-4-carbonyl]-5-methyl-1H-indol-6-yl]-3-fluoro-5-methoxybenzenesulfonamide]
7.9 nM | 0.53 nM | 3 nM |  |  |  | Cc1cc(Oc2ccccc2F)ncc1-n1ncc(C(=O)c2cc3cc(OC4CCN(C(C)C)CC4)c(Br)cc3[nH]2)c1N [Example 5-1-153, [5-amino-1-[6-(2-fluorophenoxy)-4-methylpyridin-3-yl]pyrazol-4-yl]-[6-bromo-5-(1-propan-2-ylpiperidin-4-yl)oxy-1H-indol-2-yl] methanone]
 |  |  | 160 nM | 7 nM | 32 nM | Cc1cc(Oc2c(F)cccc2F)ncc1-n1ncc(C(=O)c2cc3cc(F)c(NS(=O)(=O)C4CC4)cc3[nH]2)c1N [Example 4-2-044, N-[2-[5-amino-1-[6-(2,6-difluorophenoxy)-4-methylpyridin-3-yl]pyrazole-4-carbonyl]-5-fluoro-1H-indol-6-yl]cyclopropanesulfonamide]
6.1 nM | 0.63 nM | 2.5 nM |  |  |  | CC(=O)N1CCC(c2cc3[nH]c(C(=O)c4cnn(-c5cnc(Oc6ccccc6F)cc5C)c4N)cc3cc2C)CC1 [Example 5-1-133, 1-[4-[2-[5-amino-1-[6-(2-fluorophenoxy)-4-methylpyridin-3-yl]pyrazole-4-carbonyl]-5-methyl-1H-indol-6-yl]piperidin-1-yl]ethanone]
 |  |  | 170 nM | 2.6 nM | 48 nM | Cc1cc(Oc2ccccc2Cl)ncc1-n1ncc(C(=O)c2cc3cc(Cl)c(NS(C)(=O)=O)cc3[nH]2)c1N [Example 4-2-088, N-[2-[5-amino-1-[6-(2-chlorophenoxy)-4-methylpyridin-3-yl]pyrazole-4-carbonyl]-5-chloro-1H-indol-6-yl]methanesulfonamide]
 |  |  | 390 nM | 7.7 nM | 110 nM | Cc1cc2cc(C(=O)c3cnn(-c4c(C)cc(Oc5cccc(Cl)c5)cc4F)c3N)[nH]c2cc1NS(C)(=O)=O [Example 4-2-059, N-[2-[5-amino-1-[4-(3-chlorophenoxy)-2-fluoro-6-methylphenyl]pyrazole-4-carbonyl]-5-methyl-1H-indol-6-yl]methanesulfonamide]
 |  |  | 49 nM | 5.4 nM | 23 nM | Cc1cc(Oc2c(F)cccc2F)ncc1-n1ncc(C(=O)c2cc3cc(OC(F)F)c(NC4CCN(S(C)(=O)=O)CC4)cc3[nH]2)c1N [Example 4-23-015, [5-amino-1-[6-(2,6-difluorophenoxy)-4-methylpyridin-3-yl]pyrazol-4-yl]-[5-(difluoromethoxy)-6-[(1-methylsulfonylpiperidin-4-yl)amino]-1H-indol-2-yl]methanone]
210 nM | 1.1 nM | 45 nM |  |  |  | Cc1cc(-n2ncc(C(=O)c3cc4cc(OCC(F)F)c(N5CCOC5=O)cc4[nH]3)c2N)ccc1Oc1ccccc1F [Example 5-1-168, 3-[2-[5-amino-1-[4-(2-fluorophenoxy)-3-methylphenyl]pyrazole-4-carbonyl]-5-(2,2-difluoroethoxy)-1H-indol-6-yl]-1,3-oxazolidin-2-one]
350 nM | 7.7 nM | 120 nM |  |  |  | Cc1cc2cc(C(=O)c3cnn(-c4ccc(Oc5ncccc5Cl)cc4Cl)c3N)[nH]c2cc1NS(=O)(=O)N1CCOCC1 [Example 5-1-065, N-[2-[5-amino-1-[2-chloro-4-(3-chloropyridin-2-yl)oxyphenyl]pyrazole-4-carbonyl]-5-methyl-1H-indol-6-yl]morpholine-4-sulfonamide]
 |  |  | 4000 nM | 25 nM | 510 nM | Cc1cc2cc(C(=O)c3cnn(-c4cnc(Oc5ccccc5F)cc4C)c3N)[nH]c2cc1NS(=O)(=O)c1cccc2ccccc12 [Example 5-1-465, N-[2-[5-amino-1-[6-(2-fluorophenoxy)-4-methylpyridin-3-yl]pyrazole-4-carbonyl]-5-methyl-1H-indol-6-yl]naphthalene-1-sulfonamide]
 |  |  | 6.1 nM | 0.5 nM | 2.1 nM | Cc1cc(Oc2ccccc2F)ccc1-n1ncc(C(=O)c2cc3cc(OCC(F)F)c(N4C(=O)NC(C)(C)C4=O)cc3[nH]2)c1N [Example 4-23-033, 3-[2-[5-amino-1-[4-(2-fluorophenoxy)-2-methylphenyl]pyrazole-4-carbonyl]-5-(2,2-difluoroethoxy)-1H-indol-6-yl]-5,5-dimethylimidazolidine-2,4-dione]
23 nM | 0.43 nM | 6.1 nM |  |  |  | Cc1cc(Oc2ccccc2F)ccc1-n1ncc(C(=O)c2cc3cc(N4CCOCC4)c(N4C(=O)C(C)(C)NC4=S)cc3[nH]2)c1N [Example 5-1-120, 3-[2-[5-amino-1-[4-(2-fluorophenoxy)-2-methylphenyl]pyrazole-4-carbonyl]-5-morpholin-4-yl-1H-indol-6-yl]-5,5-dimethyl-2-sulfanylideneimidazolidin-4-one]
59 nM | 0.64 nM | 7 nM |  |  |  | Cc1cc(-n2ncc(C(=O)c3cc4cc(OC5CCN(C(C)C)CC5)c(N)cc4[nH]3)c2N)ccc1Oc1ccccc1F [Example 5-1-163, (5-amino-1-(4-(2-fluorophenoxy)-3-methylphenyl)-1H-pyrazol-4-yl)(6-amino-5-((1-isopropylpiperidin-4-yl)oxy)-1H-indol-2-yl)methanone]
77 nM | 6.2 nM | 8.9 nM |  |  |  | Cc1cc2cc(C(=O)c3cnn(-c4c(C)cc(Oc5ccccc5F)cc4F)c3N)[nH]c2cc1NS(=O)(=O)CC(=O)NC(C)C [Example 5-1-089, 2-[[2-[5-amino-1-[2-fluoro-4-(2-fluorophenoxy)-6-methylphenyl]pyrazole-4-carbonyl]-5-methyl-1H-indol-6-yl]sulfamoyl]-N-propan-2-ylacetamide]
 |  |  | 140 nM | 7.6 nM | 47 nM | Cc1cc2cc(C(=O)c3cnn(-c4c(C)cc(Oc5ccccc5F)cc4F)c3N)[nH]c2cc1NS(=O)(=O)CCCF [Example 4-2-070, N-[2-[5-amino-1-[2-fluoro-4-(2-fluorophenoxy)-6-methylphenyl]pyrazole-4-carbonyl]-5-methyl-1H-indol-6-yl]-3-fluoropropane-1-sulfonamide]
